Data: patent US10821079B2, “PKC activators and combinations thereof” (Cognitive Research Enterprises, Inc., priority 2011, dated 2020)
Where two headings read alike, the source gives them in different places.

Columns and labels:
[1] = system: PKC; conditions: cited from earlier work
[2] = cited from earlier work
[3] = biological target: PKCα (Homo sapiens, UniProt P17252); experiment: Activation of purified PKC isozymes, radiometric: PKC-α; assay type: biochemical
Protocol: (§1) To measure PKC activity, 10 μg of protein from either cytosol or membrane was incubated for 15 min at 37° C. in the presence of 10 μM histones, 4.89 mM CaCl2, 1.2 μg/μl phosphatidyl-L-serine, 0.18 μg/μl 1,2-dioctanoyl-sn-glycerol, 10 mM MgCl2, 20 mM HEPES (pH 7.4), 0.8 mM EDTA, 4 mM EGTA, 4% glycerol, 8 μg/ml aprotinin, 8 μg/ml leupeptin, 2 mM benzamidine, and 0.5 μCi of [γ-^32P]ATP. [^32P]Phosphoprotein formation was measured by adsorption onto phosphocellulose as described previously. See Nelson et al. (2009) J Biol Chem 284, 34514-34521. For measurements of activation by RA, PKC activity was measured in the absence of diacylglycerol (DAG) and phosphatidylserine, as described by Nelson et al. (2009) J Biol Chem 284, 34514-34521. PKC-δ and PKC-ε were measured in the absence of added EGTA and CaCl^2, as described by Kanno et al. (2006) J Lipid Res 47, 1146-1156. The enzyme was provided as a purified isozyme for in vitro experiments.
(§2) To measure PKC, 10 μl of cell homogenate or purified PKC isoform was incubated for 15 min at 37° C. in the presence of 10 μM histones, 4.89 mM CaCl2, 1.2 μg/μl phosphatidyl-L-serine, 0.18 μg/μl 1,2-dioctanoyl-sn-glycerol, 10 mM MgCl2, 20 mM HEPES (pH 7.4), 0.8 mM EDTA, 4 mM EGTA, 4% glycerol, 8 μg/ml aprotinin, 8 μg/ml leupeptin, and 2 mM benzamidine. [γ32P]ATP (0.5 μCi) was added and 32P-phosphoprotein formation was measured by adsorption onto phosphocellulose as described previously. See Nelson et al., J. Neurochemistry, 1995, 65: 2350-2357.
(§3) PKC activity of each compound was measured in the absence of diacylglycerol and phosphatidylserine and PKC-δ and PKC-ε were measured in the absence of added EGTA and CaCl2, as described by Kanno et al., J. Lipid Res., 2006, 47: 1146-1156. Low concentrations of Ca^2+ were needed because high Ca^2+ can interact with the PKC phosphatidylserine binding site and prevents activation. […] To determine their PKC isoform specificity, the compounds were pre-incubated with purified isoforms of PKC for five minutes and the PKC activity was measured radiometrically.
(§4) The activation and PKC isozyme specificity of DCPLA-ethyl ester was measured following the procedures in Example 1(B) and (C), except that 9 ng of the purified isozyme was used and it was pre-incubated for 5 minutes at room temperature (FIG. 3). PKC-ε activation by DCPLA-tert-butyl ester and DCPLA-retinyl ester was measured in the same manner as DCPLA-ethyl ester (FIG. 3).

[4] = biological target: PKC-δ (Homo sapiens, UniProt Q05655); experiment: Activation of purified PKC isozymes, radiometric: PKC-δ; assay type: biochemical
Protocol: as §1, §2, §3

[5] = biological target: T1, PKC-ε (Homo sapiens, UniProt Q02156); experiment: Activation of purified PKC isozymes, radiometric: PKC-ε; assay type: biochemical; conditions: for Specificity ε/α: Activation of PKC-ε ÷ activation or inhibition of PKCα at 3 × EC50
T1 sequence (Q02156 1-737): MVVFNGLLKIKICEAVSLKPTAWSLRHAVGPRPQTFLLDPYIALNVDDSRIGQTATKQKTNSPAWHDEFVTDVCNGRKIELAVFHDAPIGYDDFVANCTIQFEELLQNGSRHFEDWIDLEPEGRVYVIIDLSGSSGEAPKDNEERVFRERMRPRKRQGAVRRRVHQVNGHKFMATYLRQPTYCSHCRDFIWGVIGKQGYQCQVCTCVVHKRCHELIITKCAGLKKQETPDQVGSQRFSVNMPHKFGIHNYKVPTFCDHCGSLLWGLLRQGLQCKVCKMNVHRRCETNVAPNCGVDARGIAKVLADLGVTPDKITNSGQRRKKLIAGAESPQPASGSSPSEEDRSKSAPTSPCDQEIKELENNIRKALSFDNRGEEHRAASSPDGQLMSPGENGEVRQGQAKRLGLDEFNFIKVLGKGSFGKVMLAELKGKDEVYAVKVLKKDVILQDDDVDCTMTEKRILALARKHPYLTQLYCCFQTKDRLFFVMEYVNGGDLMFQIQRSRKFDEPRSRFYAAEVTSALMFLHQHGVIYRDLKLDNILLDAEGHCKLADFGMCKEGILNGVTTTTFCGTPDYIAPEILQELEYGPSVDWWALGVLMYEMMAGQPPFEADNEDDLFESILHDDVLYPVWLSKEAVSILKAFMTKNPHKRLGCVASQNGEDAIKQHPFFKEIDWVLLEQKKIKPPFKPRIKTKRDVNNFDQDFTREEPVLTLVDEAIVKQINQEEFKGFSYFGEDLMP
Protocol: as §2, §3, §4
The EC50 values, PKC specificity, and activation for a select number of DCPLA esters was determined (see Table 1). EC50 values were determined by measuring the lowest concentration that activates by 50% of maximum activation. […] The specificity and activation of PKC by the various esters of DCPLA were calculated from the measurements of activation of PKC isozymes.

[6] = system: PKC; conditions: cited from earlier work; remark: listed apart in the source
[7] = system: rat hippocampal primary neurons; experiment: Synaptic marker immunofluorescence in rat hippocampal primary neurons; assay type: cell-based; conditions: 50 nM ASPDs; 1 μM ADDLs; 20 hr
Protocol: Cells were grown in two chambered slides (Nunc, USA) at low density. For immunofluorescence staining, the cells were washed with PBS (pH 7.4) and fixed with 4% paraformaldehyde for 4 min. Following fixation, the cells were blocked and permeabilized with 5% serum and 0.3% Triton X 100 in 1×PBS for 30 min. The cells were washed three times with 1×PBS and incubated with primary antibodies for 1 hr at 1:100 dilution. The incubation slides were then washed again three times in 1×PBS and were incubated with the FITC anti-rabbit IgG and Rhodamine anti-mouse IgG for 1 hr at 1:400 dilution. The cells were further washed and treated with DAPI (4′,6-diamidino-2′-phenylindole, dihydrochloride) (Thermo Scientific, USA) to stain the nucleus. Finally, the slides were washed and mounted in Pro Long Gold antifade mounting solution (Invitrogen, USA) and were viewed under the LSM 710 Meta confocal microscope (Zeiss) at 350 nm, 490 nm, and 540 nm excitation and 470 nm, 525 nm, and 625 nm emission for DAPI, FITC, and Rhodamine respectively. Six individual fields at 63× oil lens magnification were analyzed for the mean fluorescence intensity (MFI) in each channel. The co-localization correlation generated by the ZEN software (Zeiss).
To estimate the synaptic damage caused by the ASPDs on primary hippocampal neurons, the expression of synaptophysin (a presynaptic marker) and PSD-95 (a postsynaptic marker) was measured by immunofluorescence staining. […] Following a 20 hr incubation period, the cells were stained for nucleus, PSD-95, and synaptophysin. Expression levels were calculated as the change of percentage in mean fluorescence intensity compared to untreated cells.
Primary neurons, treated and untreated, were immunostained for MAP-2, synaptophysin, and PSD-95 to determine the synaptic integrity. […] Following a 20 hr incubation period, the cells were stained for MAP-2, PSD-95, and synaptophysin as described above.

[8] = system: PKC-ε; experiment: PKC-ε translocation to membrane in SH-SY5Y cells (Western blot); assay type: cell-based, human; conditions: ASPD; ADDL at 20-fold higher concentrations
Protocol: (§5) Cells were harvested in homogenizing buffer containing 10 mM Tris-Cl (pH 7.4), 1 mM PMSF (phenylmethylsulfonyl fluoride), 1 mM EGTA, 1 mM EDTA, 50 mM NaF, and 20 μM leupeptin and were lysed by sonication. The homogenate was centrifuged at 100,000×g for 15 min at 4° C. to obtain the cytosolic fraction (supernatant) and membrane (pellet). The pellet was resuspended in the homogenizing buffer by sonication. Protein concentration was measured using the Coomassie Plus (Bradford) Protein Assay kit (Pierce, USA). Following quantification, 20 μg of protein from each sample was subjected to SDS-PAGE analysis in 4-20% gradient Tris-Glycine gel (Invitrogen, USA). The separated protein was then transferred to nitrocellulose membrane. The membrane was blocked with BSA at room temperature for 15 min and was incubated with primary antibody over night at 4° C. After the incubation, it was washed three times with TBS-T (Tris Buffered saline-Tween 20) and further incubated with alkaline phosphatase conjugated secondary antibody (Jackson Immunoresearch Laboratories, USA) at 1:10,000 dilution for 45 min. The membrane was finally washed three times with TBS-T and developed using the 1-step NBT-BCIP substrate (Pierce, USA). Western Blot was imaged in the ImageQuant RT-ECL (GE Life Sciences, Piscataway, N.J.) and densitometric quantification was performed using the IMAL software (Blanchette Rockefeller Neurosciences Institute, Morgantown, W. Va.). For translocation assays, PKC activation was represented as the percentage of total protein in the membrane (membrane/cytosol+membrane).
Equal amounts of proteins were loaded in each lane (20 μg) for both the cytosol and membrane fractions. Activation of PKC was calculated as the percentage of total PKC in the membrane (membrane/cytosol+membrane).

[9] = system: rat primary hippocampal neurons; experiment: Neurotoxic effect of Aβ1-42 assemblies, MTT viability; assay type: cell-based; conditions: 20 hr
Protocol: (§6) Viability of cells was measured by MTT assay. MTT (3-(4,5-Dimethylthiazol-2-yl)-2,5-diphenyltetrazolium bromide) is a tetrazolium salt that is cleaved to formazan by the succinate dehydrogenase, which is only active in viable cells. After solubilization of the formazan, the amount of dye can be quantified with a microplate reader at 570 nm along with a reference of 630 nm. For MTT assay, 5×104 primary rat hippocampal neurons from 18-day-old embryonic Sprague-Dawley rat brains were plated on each well of 24-well plates coated with poly-D-lysine. After treatment, the cells were washed with 1×PBS and were incubated with 200 μl of 1 mg/ml MTT solution (Sigma, USA) at 37° C. for 2 hr. Then the MTT-solution was removed and the cells were lysed with 200 μl isopropanol containing 0.04 M HCl and 160 mM NaOH for 10 min. Finally, the reading was done at 570 nm and 630 nm. All the samples were done in triplicates and the data was represented as the percentage of control.
To assess the neurotoxic effect of different sized oligomers, rat primary hippocampal neurons were treated with variable concentrations of these Aβ1-42 species for 20 hr. Viability of the treated cells was compared to untreated cells using the MTT assay.

[10] = system: PKC-ε; experiment: PKC-ε level in primary neurons (immunofluorescence, Western Blot); assay type: cell-based, rat; conditions: 5 μM inhibitor
Protocol: as §5
Cells were grown in two chambered slides (Nunc, USA) at low density. For immunofluorescence staining, the cells were washed with PBS (pH 7.4) and fixed with 4% paraformaldehyde for 4 min. Following fixation, the cells were blocked and permeabilized with 5% serum and 0.3% Triton X 100 in 1×PBS for 30 min. […] Six individual fields at 63× oil lens magnification were analyzed for the mean fluorescence intensity (MFI) in each channel. […]

[11] = system: primary rat hippocampal neurons; experiment: Neuroprotection against ASPD induced toxicity, MTT, primary neurons; assay type: cell-based; conditions: added with DCPLA-ME, 50 nM ASPD
Protocol: as §6
All studies used 50 nM ASPDs. The viability of the cells were measured by the MTT assay.

PKC-δ, sequence (Q05655 whole entry): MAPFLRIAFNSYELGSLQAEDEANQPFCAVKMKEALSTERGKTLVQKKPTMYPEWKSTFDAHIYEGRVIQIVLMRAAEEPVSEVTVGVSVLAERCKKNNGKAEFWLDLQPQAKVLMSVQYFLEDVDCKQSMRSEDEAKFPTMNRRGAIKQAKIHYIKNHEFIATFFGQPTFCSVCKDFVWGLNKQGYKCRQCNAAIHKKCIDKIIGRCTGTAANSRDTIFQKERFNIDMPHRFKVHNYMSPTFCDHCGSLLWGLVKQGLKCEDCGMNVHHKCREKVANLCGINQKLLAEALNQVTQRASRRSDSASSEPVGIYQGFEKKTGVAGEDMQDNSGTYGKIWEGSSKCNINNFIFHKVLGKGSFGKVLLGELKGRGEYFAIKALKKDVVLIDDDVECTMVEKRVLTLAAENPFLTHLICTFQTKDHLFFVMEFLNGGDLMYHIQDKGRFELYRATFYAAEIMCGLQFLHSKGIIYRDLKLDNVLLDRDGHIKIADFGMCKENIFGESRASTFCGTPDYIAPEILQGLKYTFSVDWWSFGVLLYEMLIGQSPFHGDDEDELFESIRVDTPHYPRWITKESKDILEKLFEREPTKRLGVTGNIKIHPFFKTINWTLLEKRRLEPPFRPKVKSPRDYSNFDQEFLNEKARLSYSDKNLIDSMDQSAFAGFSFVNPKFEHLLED

Compound: CCCCCCCC(=O)O[C@H]1/C(=C/C(=O)OC)C[C@H]2C[C@H](CO)OC(=O)C[C@H](O)C[C@@H]3CCC[C@H](C[C@@H]4CCO[C@H](/C=C/C(C)(C)[C@]1(O)O2)O4)O3 [Analog 1]
- affinity for PKC (in words) [1]: highest affinity for PKC
- Ki ([1]; read-out: PKC Affin): 0.25 nM

Compound: CCC/C=C/C=C/C(=O)O[C@H]1/C(=C/C(=O)OC)C[C@H]2C[C@H]([C@@H](C)O)OC(=O)C[C@H](O)C[C@@H]3C[C@H](OC(C)=O)C(C)(C)[C@](O)(C[C@@H]4C/C(=C/C(=O)OC)C[C@H](/C=C/C(C)(C)[C@]1(O)O2)O4)O3 [Bryostatin-1]
- time detectable in the blood ([2]; after a single injection): 14 days
- share of initial dose in the blood ([2]; at 100 hrs, intravenous injection): 1%
- t1/2 in the blood stream ([2]; blood): 1 h

Compound: CCCCCC1CC1CC1CC1CCCCCCCC(=O)OC1CC[C@@]2(C)C(=CC[C@H]3[C@H]4CC[C@H]([C@H](C)CCCC(C)C)[C@@]4(C)CC[C@H]32)C1 (some centres unmarked) [DCPLA-cholesteryl ester]
- effect on PKC-α (in words) [3]: inhibited at all concentrations
- PKC-δ activation [4]: up to 130 % of control
- PKC-ε activation at peak [5]: up to 130 % of control
- concentration of maximal activation [5]: 0.01 nM
- Specificity ε/α [5]: 0.94
- potency relative to Bryostatin-1 ([5]; concentration of maximal activity): 18 ×

Compound: CCCCCC1CC1CC1CC1CCCCCCCC(=O)OC(C)C (centres unmarked) [DCPLA-isopropyl ester]
- PKC-α activation [3]: up to 40 % of control
- effect on PKC-δ (in words) [4]: only slightly activated
- PKC-ε activation at peak [5]: up to 40 % of control
- concentration of maximal activation [5]: 10 nM
- Specificity ε/α [5]: 1.4

Compound: CCC1CC1CC1CC1CC1CC1CC1CC1CC1CC1CC1CC1CCC(=O)O (centres unmarked) [DHA-CP6]
- effective concentration [6]: 10 nM

Compound: CCCCCCCC(=O)OC1C(=CC(=O)OC)CC2CC(CO)OC(=O)CC(O)CCOC(CCCc3ccc(Br)cc3)CC3CCOC(C=CC(C)(C)C1(O)O2)O3 (centres unmarked) [bryolog 5]
- Ki ([1]; A-ring bryologs, read-out: affinity for PKC): 1.9 nM

Compound: ADDL: Aβ derived diffusible ligands prepared from Aβ1-42
- synaptophysin intensity compared to the control [7]: 75.64±4.84%
- PKC-ε membrane translocation [8]: 80.82±4.025%
- Viability of primary neuron (Mean ± SEM) ([9]; 50 nM): 91.35 ± 1.44 % of control
- Viability of primary neuron (Mean ± SEM) ([9]; 500 nM): 79.01 ± 11.32 % of control
- viability of neurons ([9]; 1 μM): 50.98±3.8%
- Viability of primary neuron (Mean ± SEM) ([9]; 1000 nM): 49.02 ± 7.26 % of control

Compound: EAVSLKPT
- effect of inhibitor on PKC-ε protection by DCPLA-ME [10]: completely blocked
- effect of inhibitor peptide on neuroprotection by DCPLA-ME [11]: blocked DCPLA-ME's protective effect
